Measurements from patent US4044134A, “Fused pyrimidin-4(3H)-ones as antiallergy agents” (Pfizer Inc., priority 1976, dated 1977).
Counter-ions that a name gives are not always drawn. Like-named read-outs stand apart in the source and are kept apart here.

System: passive cutaneous anaphylaxis (PCA) reaction
Assay: passive cutaneous anaphylaxis (PCA) test, i.v. or oral administration
Format: in vivo, male Charles River Wistar rats
Settings: for inhibition in vivo at 3 mg/kg / inhibition in vivo at 60 mg/kg / inhibition in vivo at 0.03 mg/kg / inhibition in vivo at 0.3 mg/kg / inhibition in vivo at 1 mg/kg / inhibition in vivo at 0.1 mg/kg / inhibition in vivo at 10 mg/kg / inhibition in vivo at 30 mg/kg / inhibition in vivo at 0.003 mg/kg / inhibition in vivo at 100 mg/kg: Rattus norvegicus, read-out: degree (%) of protection, PCA test
Protocol: In the PCA test, normal animals are injected intradermally (i.d.) with antibodies contained in serum obtained from actively sensitized animals. The animals are then challenged intravenously with antigen mixed with a dye such as Evans' Blue. The increased capillary-permeability caused by the antigen-antibody reaction causes the dye to leak from the site of the antibody injection. The test animals are then asphyxiated and the intensity of the reaction determined by measuring the diameter and intensity of the blue coloration on the inner surface of the animals skin. […] The ability of agents to interfere with PCA reactions is measured in male Charles River Wistar rats, 170-210 g. […] Hyperimmune antisera to hen egg albumin is prepared according to Orange, et al., J. Exptl. […] Forty-eight hours prior to antigen challenge the reaginic antisera is injected intradermally (i.d.) into the shaved skin of a normal rat's back; 5 hours before challenge the hyperimmune antisera is similarly injected; 5 hours later, at a third site, 60 mcg. histamine dihydrochloride is injected i.d. as a check for antihistaminic and unspecific types of blockage; the compounds of the instant invention or saline are then administered i.v. and immediately followed by 2.5 mg. Evan's blue dye and 5 mg. egg albumin in saline. In the case of oral administration Evan's blue dye and egg albumen are given five minutes after administration of the drug. Thirty minutes later the animals are asphyxiated using chloroform and the skin of the back removed and reversed for observation. A score is assigned each injection site equal to the product of the diameter of the site in mm. and a grade of 0.1, 0.5, 1, 2, 3 or 4 proportional to intensity of dye coloration. The scores for a given injection site are summed for each group of 8 animals and compared to the saline treated controls. The difference is expressed as percent blockade due to the compound employed. […] Disodium cromoglycate, a commerial antiallergy agent, is included for comparison. [drawing 3]

Row | SMILES | inhibition in vivo at 3 mg/kg (iv, I.V., 3 mg/kg) [%] | inhibition in vivo at 0.03 mg/kg (iv, I.V.) [%] | inhibition in vivo at 1 mg/kg (iv, I.V.) [%] | inhibition in vivo at 10 mg/kg (Oral, 10 mg/kg) [%] | further results
1 | CCOC(=O)Cc1nc2cc3ccccc3cc2c(=O)[nH]1 [2-carbethoxymethylbenzo[g]quinazolin-4(3H)-one, reference compound] | 49 |  |  |  | 
2 | Cc1nc2cc3ccccc3cc2c(=O)[nH]1 [2-methylbenzo[g]quinazolin-4(3H)-one, reference compound] |  |  |  |  | activity in the PCA test (rat, in vivo): little or no activity
3 | CCc1nc2nc3cc(OC)c(OC)cc3cc2c(=O)[nH]1 [C2 H5/H/H/OCH3/OCH3/H, 2-Ethyl-7,8-Dimethoxypyrimidin[4,5-b]quinolin-4(SH)-One] | 56 |  |  |  | inhibition in vivo at 60 mg/kg (Oral): 0%
4 | COc1cc2cc3c(=O)[nH]c(C)nc3nc2cc1OC [CH3/H/H/OCH3/OCH3/H, 2-Methyl-7,8-Dimethoxypyrimido[4,5-b]Quinolin-4(3H)-One] | 77 | 11 |  |  | inhibition in vivo at 0.3 mg/kg (iv, I.V.): 45%; inhibition in vivo at 1 mg/kg (Oral): 43%; inhibition in vivo at 3 mg/kg (Oral, 3 mg/kg): 67%
5 | COc1cc2cc3c(=O)[nH]c(C(C)=O)nc3nc2cc1OC [COCH3/H/H/OCH3/OCH3/H, 2-Acetyl-7,8-Dimethoxypyrimido[4,5-b]quinoline-4(3H)-One] | 100 |  | 21 | 15 | inhibition in vivo at 0.1 mg/kg (iv, I.V.): 19%
6 | NC(=O)c1nc2nc3ccccc3cc2c(=O)[nH]1 [CONH2/H/H/H/H/H, Pyrimido[4,5-b]Quinolin-4(3H)-One-2-Carboxamide] | 98 |  |  |  | inhibition in vivo at 60 mg/kg (Oral): 23%
7 | COc1cc2cc3c(=O)[nH]c(C(N)=O)nc3nc2cc1OC [CONH2/H/H/OCH3/OCH3/H, 7,8-Dimethoxypyrimido[4,5-b]Quinolin-4(3H)-One-2-Carboxamide] | 87 |  |  |  | inhibition in vivo at 30 mg/kg (Oral): 4%
8 | COc1cc2cc3c(=O)[nH]c(C(=O)NO)nc3nc2cc1OC [CONHOH/H/H/OCH3/OCH3/H, 7,8-Dimethoxypyrimido-[4,5-b]-Quinolin-4(3H)-One-2-Hydroxamic Acid] | 92 |  |  |  | inhibition in vivo at 60 mg/kg (Oral): 3%
9 | CCCCOC(=O)c1nc2nc3ccccc3cc2c(=O)[nH]1 [COO(n-C4 H9)/H/H/H/H/H, n-Butylpyrimido[4,5-b]Quinolin-4(3H)-One-2-carboxylate] |  | 6 | 90 |  | inhibition in vivo at 30 mg/kg (Oral): 50%
10 | CCCCOC(=O)c1nc2nc3cc(OC)c(OC)cc3cc2c(=O)[nH]1 [COO(n-C4 H9)/H/H/OCH3/OCH3/H] | 90 | 100 |  |  | inhibition in vivo at 0.003 mg/kg (iv, I.V., 0.003 mg/kg): 64%; inhibition in vivo at 0.3 mg/kg (iv, I.V.): 94%; inhibition in vivo at 30 mg/kg (Oral): 81%
11 | CCCCOC(=O)c1nc2nc3cc(OC)c(OC(C)=O)cc3cc2c(=O)[nH]1 [COO-(n-C4 H9)/H/H/CH3 COO/OCH3/H] | 100 |  |  | 36 | 
12 | CCCCOC(=O)c1nc2nc3cc(OC)c(OCc4ccccc4)cc3cc2c(=O)[nH]1 [COO-(n-C4 H9)/H/H/OC7 H7/OCH3/H] | 100 | 57 |  | 12 | 
13 | CCCCOC(=O)c1nc2nc3cc(OC)c(O)cc3cc2c(=O)[nH]1 [COO-(n-C4 H9)/H/H/OH/OCH3/H, n-butyl 7-hydroxy-8-methoxypyrimido[4,5-b]quinolin-4(3H)one-2-carboxylate trifluoroacetate] | 100 |  |  | 67 | inhibition in vivo at 0.003 mg/kg (iv, I.V., 0.003 mg/kg): 52%
14 | CCOC(=O)c1nc2nc3ccccc3c(-c3ccccc3)c2c(=O)[nH]1 [COOC2 H5/C6 H5/H/H/H/H, Ethyl 5-Phenylpyrimido[4,5-b]Quinolin-4(3H)-One-2-Carboxylate] | 100 |  | 95 | 0 | inhibition in vivo at 0.1 mg/kg (iv, I.V.): 9%; inhibition in vivo at 0.3 mg/kg (iv, I.V.): 51%; inhibition in vivo at 1 mg/kg (Oral): 0%
15 | CCOC(=O)c1nc2nc3cccc(Cl)c3cc2c(=O)[nH]1 [COOC2 H5/H/Cl/H/H/H, Ethyl 6-Chloropyrimido[4,5-b]Quinolin-4(3H)-One-2-Carboxylate] |  | 11 | 96 |  | inhibition in vivo at 30 mg/kg (Oral): 57%
16 | CCOC(=O)c1nc2nc3cc4c(cc3cc2c(=O)[nH]1)OCO4 [COOC2 H5/H/H/--O--CH2 --O--, Ethyl 7,8-Methylenedioxypyrimido[4,5-b]Quinolin-4(3H)-One-2-Carboxylate] |  |  | 70 |  | inhibition in vivo at 0.1 mg/kg (iv, I.V.): 0%; inhibition in vivo at 30 mg/kg (Oral): 0%
17 | CCOC(=O)c1nc2nc3cc4c(cc3cc2c(=O)[nH]1)OCCO4 [COOC2 H5/H/H/--O--CH2 CH2 --O--/H] | 72 |  | 64 |  | 
18 | CCOC(=O)c1nc2nc3cc(OC)c(OC(C)=O)cc3cc2c(=O)[nH]1 [COOC2 H5/H/H/CH3 COO/OCH3/H, Ethyl 7-Acetoxy-8-Methoxypyrimido[4,5-b]Quinolin-4(3H)One-2-Carboxylate p-Toluenesulfonate] |  |  |  |  | inhibition in vivo at 0.003 mg/kg (iv): 53%; inhibition in vivo at 3 mg/kg (iv): 100%; inhibition in vivo at 10 mg/kg (po): 40%
19 | CCOC(=O)c1nc2nc3ccc(Cl)cc3cc2c(=O)[nH]1 [COOC2 H5/H/H/Cl/H/H, Ethyl 7-Chloropyrimido[4,5-b]quinolin-4(3H)-one-2-carboxylate] |  | 0 | 70 |  | 
20 | CCOC(=O)c1nc2nc3ccc(F)cc3cc2c(=O)[nH]1 [COOC2 H5/H/H/F/H/H, Ethyl 7-fluoropyrimido[4,5-b]quinolin-4(3H)-one-2-carboxylate] | 82 | 0 | 90 |  | inhibition in vivo at 30 mg/kg (Oral): 17%
21 | CCOC(=O)c1nc2nc3cc(F)ccc3cc2c(=O)[nH]1 [COOC2 H5/H/H/H/F/H, Ethyl 8-fluoropyrimido[4,5-b]quinolin-4(3H)-one-2-carboxylate] |  |  |  |  | inhibition in vivo at 0.1 mg/kg (iv, I.V.): 2%
22 | CCOC(=O)c1nc2cc3ccccc3cc2c(=O)[nH]1 [COOC2 H5/H/H/H/H (Formula II), ethyl Benzo[g]Quinazolin-4(3H)-One-2-Carboxylate] |  |  |  |  | inhibition in vivo at 10 mg/kg (iv, I.V., 10 mg/kg): 27%; inhibition in vivo at 100 mg/kg (Oral): 38%
23 | CCOC(=O)c1nc2nc3ccccc3cc2c(=O)[nH]1 [COOC2 H5/H/H/H/H/H, Ethyl Pyrimido[4,5-b]Quinolin-4-(3H)-One-2-Carboxylate] | 99 | 30 | 100 |  | inhibition in vivo at 0.1 mg/kg (iv, I.V.): 45%; inhibition in vivo at 0.3 mg/kg (iv, I.V.): 82%; inhibition in vivo at 10 mg/kg (iv, I.V., 10 mg/kg): 100%; inhibition in vivo at 1 mg/kg (Oral): 12%; inhibition in vivo at 3 mg/kg (Oral, 3 mg/kg): 69%; inhibition in vivo at 30 mg/kg (Oral): 72%; inhibition in vivo at 60 mg/kg (Oral): 100%; inhibition in vivo at 100 mg/kg (Oral): 80%
24 | CCOC(=O)c1nc2nc3cc(OC)ccc3cc2c(=O)[nH]1 [COOC2 H5/H/H/H/OCH3/H] | 90 | 0 |  | 43 | inhibition in vivo at 0.3 mg/kg (iv, I.V.): 20%
25 | CCOC(=O)c1nc2nc3c(OC)c(OC)ccc3cc2c(=O)[nH]1 [COOC2 H5/H/H/H/OCH3/OCH3, Ethyl 8,9-Dimethoxypyrimido[4,5-b]-Quinolin-4(3H)-One-2-Carboxylate] | 100 |  |  | 0 | inhibition in vivo at 0.3 mg/kg (iv, I.V.): 39%; inhibition in vivo at 60 mg/kg (Oral): 26%
26 | CCCCOc1cc2nc3nc(C(=O)OCC)[nH]c(=O)c3cc2cc1OCC [COOC2 H5/H/H/OC2 H5/O-(n-C4 H9)/H] | 90 | 0 | 95 | 67 | inhibition in vivo at 0.1 mg/kg (iv, I.V.): 28%; inhibition in vivo at 0.3 mg/kg (iv, I.V.): 44%; inhibition in vivo at 1 mg/kg (Oral): 3%; inhibition in vivo at 3 mg/kg (Oral, 3 mg/kg): 43%
